Measurements from patent publication US20060112494A1, “Method of protecting an animal skin product from metalloproteinase activity” (priority 2004, published 2006).
Where two headings read alike, the source gives them in different places.

Key:
[1] = tested on: mixed bacteria on fresh hide samples; parameters: Growth/Days 2 / Growth/Days 4: key to the marks not given beside the values; details: for Growth/Days 1: day 1; for Growth/Days 2: day 2; for Growth/Days 4: day 4;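 on all read-outs here: fresh hide pieces laid on inhibitor-containing nutrient agar supplemented with 0.5% Azocoll, incubated at 30 °C, then scored for growth of bacteria originating from the hide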
collagenase = details: for Collagenase Activity/Days 1: day 1; for Collagenase Activity/Days 2: day 2; for Collagenase Activity/Days 4: day 4; for Collagenase Activity/Days 7: day 7;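 on all read-outs here: nutrient agar containing 0.5% Azocoll with inhibitor, topped by a fresh hide piece, kept at 30 °C, collagenase from hide bacteria scored visually as clearing zone around growth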
Procedure: Nutrient agar amended with 0.5% AZOCOLL was used as the test medium to study collagenase activity. The nutrient agar was prepared and autoclaved and then was cooled to 55° C. Azocol was added to give a final concentration of 0.5%. […] Fresh hides were obtained from a tannery and were cut into pieces of approximately 2 cm square. One 2×2 cm hide sample was placed on top of the agar containing the inhibitors. Treated samples were incubated at 30° C. and evaluated after 24 hours, 2 days, 3 or 4 days and 7 days for collagenase activity and also for the growth of the bacteria. The bacteria from the hides secreted collagenase into the medium as they grew to degrade the collagen in the azocoll medium and collagenase activity was determined by visual inspection of the clear zone around the bacteria

Compound: O=C([O-])CN(CCN(CC(=O)O)CC(=O)O)CC(=O)[O-].[Na+].[Na+] [Na2EDTA, ethylenediaminetetraacetic acid disodium salt]
- Growth/Days 1 ([1]; Conc. 0.025%): ++++
- Growth/Days 2 ([1]; Conc. 0.025%): ++++
- Growth/Days 4 ([1]; Conc. 0.025%): ++++
- Growth/Days 1 ([1]; Conc. 0.05%): ++++
- Growth/Days 2 ([1]; Conc. 0.05%): ++++
- Growth/Days 4 ([1]; Conc. 0.05%): ++++
- Growth/Days 1 ([1]; Conc. 0.075%): ++++
- Growth/Days 2 ([1]; Conc. 0.075%): ++++
- Growth/Days 4 ([1]; Conc. 0.075%): ++++
- Growth/Days 1 ([1]; Conc. 0.1%): ++
- Growth/Days 2 ([1]; Conc. 0.1%): ++++
- Growth/Days 4 ([1]; Conc. 0.1%): ++++
- Growth/Days 1 ([1]; Conc. 0.2%): 0
- Growth/Days 2 ([1]; Conc. 0.2%): +++
- Growth/Days 4 ([1]; Conc. 0.2%): ++++
- Growth/Days 1 ([1]; Conc. 0.3%): 0
- Growth/Days 2 ([1]; Conc. 0.3%): +++
- Growth/Days 4 ([1]; Conc. 0.3%): ++++
- Growth/Days 1 ([1]; Conc. 0.4%): 0
- Growth/Days 2 ([1]; Conc. 0.4%): +++
- Growth/Days 4 ([1]; Conc. 0.4%): ++++
- Growth/Days 1 ([1]; Conc. 0.5%): 0
- Growth/Days 2 ([1]; Conc. 0.5%): +++
- Growth/Days 4 ([1]; Conc. 0.5%): ++++
- Collagenase Activity/Days 1 (collagenase; Conc. 0.025%): ++++
- Collagenase Activity/Days 2 (collagenase; Conc. 0.025%): ++++
- Collagenase Activity/Days 4 (collagenase; Conc. 0.025%): ++++
- Collagenase Activity/Days 7 (collagenase; Conc. 0.025%): ++++
- Collagenase Activity/Days 1 (collagenase; Conc. 0.05%): 0
- Collagenase Activity/Days 2 (collagenase; Conc. 0.05%): +++
- Collagenase Activity/Days 4 (collagenase; Conc. 0.05%): ++++
- Collagenase Activity/Days 7 (collagenase; Conc. 0.05%): ++++
- Collagenase Activity/Days 1 (collagenase; Conc. 0.075%): +
- Collagenase Activity/Days 2 (collagenase; Conc. 0.075%): +++
- Collagenase Activity/Days 4 (collagenase; Conc. 0.075%): ++++
- Collagenase Activity/Days 7 (collagenase; Conc. 0.075%): ++++
- Collagenase Activity/Days 1 (collagenase; Conc. 0.1%): 0
- Collagenase Activity/Days 2 (collagenase; Conc. 0.1%): +
- Collagenase Activity/Days 4 (collagenase; Conc. 0.1%): +++
- Collagenase Activity/Days 7 (collagenase; Conc. 0.1%): +++
- Collagenase Activity/Days 1 (collagenase; Conc. 0.2%): 0
- Collagenase Activity/Days 2 (collagenase; Conc. 0.2%): 0
- Collagenase Activity/Days 4 (collagenase; Conc. 0.2%): 0
- Collagenase Activity/Days 7 (collagenase; Conc. 0.2%): +
- Collagenase Activity/Days 1 (collagenase; Conc. 0.3%): 0
- Collagenase Activity/Days 2 (collagenase; Conc. 0.3%): 0
- Collagenase Activity/Days 4 (collagenase; Conc. 0.3%): 0
- Collagenase Activity/Days 7 (collagenase; Conc. 0.3%): +
- Collagenase Activity/Days 1 (collagenase; Conc. 0.4%): 0
- Collagenase Activity/Days 2 (collagenase; Conc. 0.4%): 0
- Collagenase Activity/Days 4 (collagenase; Conc. 0.4%): 0
- Collagenase Activity/Days 7 (collagenase; Conc. 0.4%): 0
- Collagenase Activity/Days 1 (collagenase; Conc. 0.5%): 0
- Collagenase Activity/Days 2 (collagenase; Conc. 0.5%): 0
- Collagenase Activity/Days 4 (collagenase; Conc. 0.5%): 0
- Collagenase Activity/Days 7 (collagenase; Conc. 0.5%): 0

Compound: O=C([O-])CN(CCN(CC(=O)[O-])CC(=O)O)CC(=O)[O-].[Na+].[Na+].[Na+] [Na3EDTA, ethylenediaminetetraacetic acid trisodium salt]
- Growth/Days 1 ([1]; Conc. 0.025%): ++++
- Growth/Days 2 ([1]; Conc. 0.025%): ++++
- Growth/Days 4 ([1]; Conc. 0.025%): ++++
- Growth/Days 1 ([1]; Conc. 0.05%): ++++
- Growth/Days 2 ([1]; Conc. 0.05%): ++++
- Growth/Days 4 ([1]; Conc. 0.05%): ++++
- Growth/Days 1 ([1]; Conc. 0.075%): ++++
- Growth/Days 2 ([1]; Conc. 0.075%): ++++
- Growth/Days 4 ([1]; Conc. 0.075%): ++++
- Growth/Days 1 ([1]; Conc. 0.1%): ++++
- Growth/Days 2 ([1]; Conc. 0.1%): ++++
- Growth/Days 4 ([1]; Conc. 0.1%): ++++
- Growth/Days 1 ([1]; Conc. 0.2%): ++++
- Growth/Days 2 ([1]; Conc. 0.2%): ++++
- Growth/Days 4 ([1]; Conc. 0.2%): ++++
- Growth/Days 1 ([1]; Conc. 0.3%): +++
- Growth/Days 2 ([1]; Conc. 0.3%): +++
- Growth/Days 4 ([1]; Conc. 0.3%): +++
- Growth/Days 1 ([1]; Conc. 0.4%): ++++
- Growth/Days 2 ([1]; Conc. 0.4%): ++++
- Growth/Days 4 ([1]; Conc. 0.4%): ++++
- Growth/Days 1 ([1]; Conc. 0.5%): ++
- Growth/Days 2 ([1]; Conc. 0.5%): ++++
- Growth/Days 4 ([1]; Conc. 0.5%): ++++
- Collagenase Activity/Days 1 (collagenase; Conc. 0.025%): ++++
- Collagenase Activity/Days 2 (collagenase; Conc. 0.025%): ++++
- Collagenase Activity/Days 4 (collagenase; Conc. 0.025%): ++++
- Collagenase Activity/Days 7 (collagenase; Conc. 0.025%): ++++
- Collagenase Activity/Days 1 (collagenase; Conc. 0.05%): ++
- Collagenase Activity/Days 2 (collagenase; Conc. 0.05%): +++
- Collagenase Activity/Days 4 (collagenase; Conc. 0.05%): ++++
- Collagenase Activity/Days 7 (collagenase; Conc. 0.05%): ++++
- Collagenase Activity/Days 1 (collagenase; Conc. 0.075%): 0
- Collagenase Activity/Days 2 (collagenase; Conc. 0.075%): +
- Collagenase Activity/Days 4 (collagenase; Conc. 0.075%): +++
- Collagenase Activity/Days 7 (collagenase; Conc. 0.075%): ++++
- Collagenase Activity/Days 1 (collagenase; Conc. 0.1%): 0
- Collagenase Activity/Days 2 (collagenase; Conc. 0.1%): +
- Collagenase Activity/Days 4 (collagenase; Conc. 0.1%): +++
- Collagenase Activity/Days 7 (collagenase; Conc. 0.1%): +++
- Collagenase Activity/Days 1 (collagenase; Conc. 0.2%): 0
- Collagenase Activity/Days 2 (collagenase; Conc. 0.2%): 0
- Collagenase Activity/Days 4 (collagenase; Conc. 0.2%): ++
- Collagenase Activity/Days 7 (collagenase; Conc. 0.2%): +++
- Collagenase Activity/Days 1 (collagenase; Conc. 0.3%): 0
- Collagenase Activity/Days 2 (collagenase; Conc. 0.3%): 0
- Collagenase Activity/Days 4 (collagenase; Conc. 0.3%): +
- Collagenase Activity/Days 7 (collagenase; Conc. 0.3%): ++
- Collagenase Activity/Days 1 (collagenase; Conc. 0.4%): 0
- Collagenase Activity/Days 2 (collagenase; Conc. 0.4%): 0
- Collagenase Activity/Days 4 (collagenase; Conc. 0.4%): 0
- Collagenase Activity/Days 7 (collagenase; Conc. 0.4%): +
- Collagenase Activity/Days 1 (collagenase; Conc. 0.5%): 0
- Collagenase Activity/Days 2 (collagenase; Conc. 0.5%): 0
- Collagenase Activity/Days 4 (collagenase; Conc. 0.5%): 0
- Collagenase Activity/Days 7 (collagenase; Conc. 0.5%): +

Compound: O=C([O-])CN(CCN(CC(=O)[O-])CC(=O)[O-])CC(=O)[O-].[Na+].[Na+].[Na+].[Na+] [Na4EDTA, ethylenediaminetetraacetic acid tetrasodium salt]
- Growth/Days 1 ([1]; Conc. 0.025%): ++++
- Growth/Days 2 ([1]; Conc. 0.025%): ++++
- Growth/Days 4 ([1]; Conc. 0.025%): ++++
- Growth/Days 1 ([1]; Conc. 0.05%): ++++
- Growth/Days 2 ([1]; Conc. 0.05%): ++++
- Growth/Days 4 ([1]; Conc. 0.05%): ++++
- Growth/Days 1 ([1]; Conc. 0.075%): ++++
- Growth/Days 2 ([1]; Conc. 0.075%): ++++
- Growth/Days 4 ([1]; Conc. 0.075%): ++++
- Growth/Days 1 ([1]; Conc. 0.1%): ++++
- Growth/Days 2 ([1]; Conc. 0.1%): ++++
- Growth/Days 4 ([1]; Conc. 0.1%): ++++
- Growth/Days 1 ([1]; Conc. 0.2%): ++++
- Growth/Days 2 ([1]; Conc. 0.2%): ++++
- Growth/Days 4 ([1]; Conc. 0.2%): ++++
- Growth/Days 1 ([1]; Conc. 0.3%): ++++
- Growth/Days 2 ([1]; Conc. 0.3%): ++++
- Growth/Days 4 ([1]; Conc. 0.3%): ++++
- Growth/Days 1 ([1]; Conc. 0.4%): ++++
- Growth/Days 2 ([1]; Conc. 0.4%): ++++
- Growth/Days 4 ([1]; Conc. 0.4%): ++++
- Growth/Days 1 ([1]; Conc. 0.5%): ++++
- Growth/Days 2 ([1]; Conc. 0.5%): ++++
- Growth/Days 4 ([1]; Conc. 0.5%): ++++
- Collagenase Activity/Days 1 (collagenase; Conc. 0.025%): ++++
- Collagenase Activity/Days 2 (collagenase; Conc. 0.025%): ++++
- Collagenase Activity/Days 4 (collagenase; Conc. 0.025%): ++++
- Collagenase Activity/Days 7 (collagenase; Conc. 0.025%): ++++
- Collagenase Activity/Days 1 (collagenase; Conc. 0.05%): ++++
- Collagenase Activity/Days 2 (collagenase; Conc. 0.05%): ++++
- Collagenase Activity/Days 4 (collagenase; Conc. 0.05%): ++++
- Collagenase Activity/Days 7 (collagenase; Conc. 0.05%): ++++
- Collagenase Activity/Days 1 (collagenase; Conc. 0.075%): +
- Collagenase Activity/Days 2 (collagenase; Conc. 0.075%): ++
- Collagenase Activity/Days 4 (collagenase; Conc. 0.075%): +++
- Collagenase Activity/Days 7 (collagenase; Conc. 0.075%): ++++
- Collagenase Activity/Days 1 (collagenase; Conc. 0.1%): 0
- Collagenase Activity/Days 2 (collagenase; Conc. 0.1%): +
- Collagenase Activity/Days 4 (collagenase; Conc. 0.1%): ++
- Collagenase Activity/Days 7 (collagenase; Conc. 0.1%): +++
- Collagenase Activity/Days 1 (collagenase; Conc. 0.2%): 0
- Collagenase Activity/Days 2 (collagenase; Conc. 0.2%): +
- Collagenase Activity/Days 4 (collagenase; Conc. 0.2%): ++
- Collagenase Activity/Days 7 (collagenase; Conc. 0.2%): +++
- Collagenase Activity/Days 1 (collagenase; Conc. 0.3%): 0
- Collagenase Activity/Days 2 (collagenase; Conc. 0.3%): +
- Collagenase Activity/Days 4 (collagenase; Conc. 0.3%): +
- Collagenase Activity/Days 7 (collagenase; Conc. 0.3%): +++
- Collagenase Activity/Days 1 (collagenase; Conc. 0.4%): 0
- Collagenase Activity/Days 2 (collagenase; Conc. 0.4%): +
- Collagenase Activity/Days 4 (collagenase; Conc. 0.4%): +
- Collagenase Activity/Days 7 (collagenase; Conc. 0.4%): +++
- Collagenase Activity/Days 1 (collagenase; Conc. 0.5%): 0
- Collagenase Activity/Days 2 (collagenase; Conc. 0.5%): 0
- Collagenase Activity/Days 7 (collagenase; Conc. 0.5%): ++
